Reference: patent US10220092B2, “Devices, systems and methods for optogenetic modulation of action potentials in target cells” (The Board of Trustees of the Leland Stanford Junior …, priority 2013, dated 2019)

Experiments:
[1] = test system: acid-sensing ion channels (ASICs); experiment: Pharmacological blockade of the ChR2 bystander current by the ASIC inhibitor amiloride; type: cell-based, mice
Procedure: Whole cell patch clamp recordings on cortical and hippocampus neurons were performed on an upright Leica DM-LFSA microscope. Slices were continually perfused in warmed (33° C.) ACSF at a rate of 7 ml min^−1 Patching was performed in the presence of synaptic transmission blockers 6-cyano-7-nitroquinoxaline-2,3-dione (CNQX, 50 μM) and D(−)-2-amino-5-phosphonovaleric acid (APV, 25 μM) and gabazine (25 μM) (Tocris Bioscience) except for during testing of electrically-evoked synaptic responses. For amiloride experiments, amiloride was added to the ACSF at a concentration of 500 μM (Tocris). Borosilicate glass (Sutter Instruments) pipette resistances were pulled to 3-6 MΩ and filled with potassium gluconate intracellular solution (130 mM K Gluconate, 10 mM KCl, 10 mM HEPES, 10 mM EGTA, 2 mM MgCl2, pH adjusted with KOH to 7.3). Voltage and current clamp electrophysiological recordings and manipulations were performed using pClamp (Axon Instruments). Cells were held at −70 mV for all experiments. Cells with leak current greater than −300 pA or pipette resistance greater than 30 MΩ were excluded. […]

[2] = test system: cultured hippocampal neurons; experiment: Whole cell patch clamp of cultured hippocampal neurons expressing eArch3.0-ASIC2a (Champ) constructs; type: cell-based, rat
Description: Construct design for hippocampal neurons: The protein sequence of rat ASIC2a (Genbank accession number NM_001034014.1) was human codon optimized and synthesized by Genscript. eArch3.0 and ASIC-YFP fusions were cloned into an AAV2 backbone either under a CaMKIIα or human synapsin promoter. The trafficking signal (TS) and endoplasmic reticulum export signal (ER) sequences were appropriately added to enhance membrane trafficking. All maps and sequence details are on the website: www(dot)optogenetics(dot)org.
Hippocampal neuron culture and calcium phosphate transfection (as per Mattis et al. (Nat Methods 2011; 9: 159-72)). Primary cultured hippocampal neurons were prepared from PO Sprague-Dawley rat pups (Charles River). CA1 and CA3 were isolated, digested with 0.4 mg ml^−1 papain (Worthington), and plated onto glass coverslips precoated with 1:30 Matrigel (Becton Dickinson Labware). […]
Electrophysiological recordings in cultured hippocampal neurons: Whole cell patch clamp recordings were performed on cultured hippocampal neurons 4-8 days post-transfection on an upright Leica DM-LFSA microscope (Mattis et al, 2011). […] Data acquisition, current and light manipulations were controlled using pClamp (Axon Instruments) via a Digidata 1440A interface and analyzed using ClampFit software (Axon Instruments). […]

Xenopus laevis oocytes = experiment: Two-electrode voltage clamp of CsR proton pump co-expressed with rat ASICs in oocytes; type: cell-based; conditions: co-expressed with CsRT46N; 560 nm, 0.1 mM MOPS, pH 7.5
Procedure: Two-component optogenetics experiments. Construct design and expression in Xenopus laevis oocytes: The coding sequences for rat ASICs (in pRSSP6009) were provided by Stefan Grander (Aachen). The pRSSP6009 plasmid coding for ASICs and the pGEM plasmid coding for Coccomyxa subellipsoidea C-169 Rhodopsin CsRT46N were linearized by MulI site in pRSSP 6009 and by NheI in pGEM. After transcription into RNA using T7 (pGEM) or SP6 (pRSSP6009) mMessage mMachine Kit (Ambion Inc, Texas, USA) 32 ng of capped RNA encoding CsR pump and one type of ASIC were co-injected into Xenopus leavis oocytes with a molar ratio of 1:1 pump:channel for ASIC1 and ASIC2a and a molar ratio of 1:2 for ASIC3. Oocytes were incubated for 3 days at 18° C. in ORI solution with 1 μM all-trans retinal (Tsunoda & Hegemann, 2009).
Two-electrode voltage clamp measurements: TEVC measurements on X. laevis oocytes were performed using a GeneClamp 500 amplifier (Axon Instruments, Union City). Data acquisition, buffer exchange and light triggering were controlled with pClamp software via a Digidata 1322A interface (Molecular Devices, Sunnyvale). […] For pH titration, buffer solutions were adjusted with 5 mM MOPS/MES/Citrate over the range of pH 8.0 to 4.0, and were subsequently compared with photocurrents measured at 0.1 mM MOPS at pH 7.5

**Q.** With `N=C(N)NC(=O)c1nc(Cl)c(N)nc1N` [amiloride] as the molecule, how does the “Magnitude of light-evoked bystander current, relative to baseline value” ([1]; 500 μM amiloride applied for 20 minutes, hippocampal ChR2 bystander neurons, 15 s light pulse) read?
**A.** ~50%

**Q.** And the “Membrane resistance during amiloride application” value ([1]; 500 μM amiloride, absence of any illumination)?
**A.** increase in membrane resistance

**Q.** Which results are given for “Champ4.0: eArch3.0 and ASIC2a separated during protein translation by the ribosomal skip sequence p2A; SEQ ID NO:34”?
**A.** Presence and reliability of the inward ASIC-mediated current component ([2]; head-to-head comparison, increasing molecular separation, 0.1 mM buffer): occasionally saw large ASIC currents; Cell health measures (leak current, membrane resistance, pipette resistance, resting membrane potential) across groups ([2]; one-way ANOVA across 5 groups): no significant differences

B1: ASIC3: rat acid-sensing ion channel co-expressed with CsR in oocytes (protein, UniProt O35240 1-533, looked up)
Acid-sensing ion channel 3: MKPRSGLEEAQRRQASDIRVFASSCTMHGLGHIFGPGGLTLRRGLWATAVLLSLAAFLYQVAERVRYYGEFHHKTTLDERESHQLTFPAVTLCNINPLRRSRLTPNDLHWAGTALLGLDPAEHAAYLRALGQPPAPPGFMPSPTFDMAQLYARAGHSLEDMLLDCRYRGQPCGPENFTVIFTRMGQCYTFNSGAHGAELLTTPKGGAGNGLEIMLDVQQEEYLPIWKDMEETPFEVGIRVQIHSQDEPPAIDQLGFGAAPGHQTFVSCQQQQLSFLPPPWGDCNTASLDPDDFDPEPSDPLGSPRPRPSPPYSLIGCRLACESRYVARKCGCRMMHMPGNSPVCSPQQYKDCASPALDAMLRKDTCVCPNPCATTRYAKELSMVRIPSRASARYLARKYNRSESYITENVLVLDIFFEALNYEAVEQKAAYEVSELLGDIGGQMGLFIGASLLTILEILDYLCEVFQDRVLGYFWNRRSAQKRSGNTLLQEELNGHRTHVPHLSLGPRPPTTPCAVTKTLSASHRTCYLVTRL
**Q.** Which “Inactivation in sustained light” value (Xenopus laevis oocytes) does the source give for B1 here?
**A.** strong inactivation
